In one experiment the test system is MM052 cells. Briefly: Colony assay and Cell Titer Glo assay in short-term melanoma culture MM052. Format: cell-based, human. On the procedure: E) and Cell Titer Glo assay performed after 6 days after incubation of the short culture melanoma line MM052 with MEK inhibitor trametinib (TRA; 2 nM), RXRG agonist bexarotene (BEX; 1 uM), FAK inhibitor PF-562271 (1 uM) and RXRG antagonist HX531 (2 uM).
Cells were grown to near confluency on 12well plates and treated with the indicated drug combinations for the indicated time period. Cells were washed once with PBS, stained with crystal violet (1% crystal violet w/v, 35% methanol v/v) for 15 min, washed with PBS and destained in tap water.
2500 cells were plated onto a 96well plate and treated with the indicated drug combinations for the indicated time period. Cell Titer Glo assay was performed according to the manufacturer's instruction (Promega) and luminescence was measured on a VictorX3 (Perkin Elmer).
A general note: ATP-based viability assays read luminescence as a measure of living cells.

A further experiment relates to MEL006 cells. The experiment can be described thus: FACS of GFRA2-positive (NDTC) cells in drug-exposed MEL006 cultures.

These results are taken from patent US20210008047A1, “TARGETING MINIMAL RESIDUAL DISEASE IN CANCER WITH RXR ANTAGONISTS” (VIB VZW, priority 2018, published 2021).

Description for MEL006 cells: Cells from dissociated MEL006 tumors were grown in 5% CO2 at 37° C. in F10 (Gibco, Life Technologies) supplemented with 10% FBS (Gibco, Life Technologies) and 0.25% Glutamax (Gibco, Life Technologies).
Cells were incubated with GFRA2 antibody (AF429 R&D 3 μg/mL) for 45 minutes at room temperature, followed by anti-goat secondary antibody conjugated with Alexa Fluor® 594 (ThermoFisherScientific) for 30 min at room temperature. Cells were resuspended in FACS sorting buffer (culture medium supplied with 1% EDTA 100 mM).
To assess whether emergence of NDTCs upon MAPK inhibition is cancer cell intrinsic or depends on micro-environmental cues, we exposed 2D cultures of Me1006 to near IC25 concentrations of dabrafenib and trametinib for 10 days.

As for `CN1c2ccc([N+](=O)[O-])cc2N=C(c2ccc(C(=O)O)cc2)c2cc3c(cc21)C(C)(C)CCC3(C)C` [HX531], the “Sensitization of cells to trametinib” value in the experiment on MM052 cells (MM52, HX531 2 uM, trametinib 2 nM per FIG. 7 legend) is “sensitized”. Further, the “Drug-dependent induction of GFRA2-positive cells” value in the experiment on MEL006 cells (in the presence of IC50 concentrations of the BRAF and MEK-inhibitors) is listed as “completely inhibited”.

Turning to `CN(c1ncccc1CNc1nc(Nc2ccc3c(c2)CC(=O)N3)ncc1C(F)(F)F)S(C)(=O)=O` [PF-562271], in the experiment with MEL006 cells (FAK inhibitor together with DT, dose-dependent), the “Drug-dependent emergence of the GFRA2-high cell population” value was “diminished”. Also, the “Sensitivity of GFRA2high cells to FAK inhibitors” value in the experiment on MEL006 cells (MEL006 cells treated with DT and or FAK inhibitors, then FACS sorted for GFRA2) is given as “sensitive”.

With `C=C(c1ccc(C(=O)O)cc1)c1cc2c(cc1C)C(C)(C)CCC2(C)C` [bexarotene], the “Sensitivity of cells to a combination of trametinib/FAK-inhibitors” value with MM052 cells (MM52) is on record as “increased”. Further, in the experiment with MM052 cells (MM52, bexarotene alone), the Long-term growth inhibition result is reported as “did not induce measurable long-term growth inhibition”. Moreover, the “Sensitivity of cells to trametinib” value in the experiment on MM052 cells (MM52, bexarotene at concentrations as low as 10 nM) is “significantly decreased”. Also, the “Cells in which cell death occurred” value with MM052 cells (bexarotene with trametinib/FAK-inhibitors, after 3 days of treatment (data not shown)) is on record as roughly 100%.
